{"source": "patent US20170087174A1", "about": "“COMBINATION THERAPY REGIMEN FOR TREATMENT OF HCV” (JANSSEN PHARMACEUTICALS, INC., priority 2015, published 2017)", "key": {"P-gp": {"molecular_target": "P-gp (Homo sapiens, UniProt P08183)", "sequence (P08183 whole entry)": "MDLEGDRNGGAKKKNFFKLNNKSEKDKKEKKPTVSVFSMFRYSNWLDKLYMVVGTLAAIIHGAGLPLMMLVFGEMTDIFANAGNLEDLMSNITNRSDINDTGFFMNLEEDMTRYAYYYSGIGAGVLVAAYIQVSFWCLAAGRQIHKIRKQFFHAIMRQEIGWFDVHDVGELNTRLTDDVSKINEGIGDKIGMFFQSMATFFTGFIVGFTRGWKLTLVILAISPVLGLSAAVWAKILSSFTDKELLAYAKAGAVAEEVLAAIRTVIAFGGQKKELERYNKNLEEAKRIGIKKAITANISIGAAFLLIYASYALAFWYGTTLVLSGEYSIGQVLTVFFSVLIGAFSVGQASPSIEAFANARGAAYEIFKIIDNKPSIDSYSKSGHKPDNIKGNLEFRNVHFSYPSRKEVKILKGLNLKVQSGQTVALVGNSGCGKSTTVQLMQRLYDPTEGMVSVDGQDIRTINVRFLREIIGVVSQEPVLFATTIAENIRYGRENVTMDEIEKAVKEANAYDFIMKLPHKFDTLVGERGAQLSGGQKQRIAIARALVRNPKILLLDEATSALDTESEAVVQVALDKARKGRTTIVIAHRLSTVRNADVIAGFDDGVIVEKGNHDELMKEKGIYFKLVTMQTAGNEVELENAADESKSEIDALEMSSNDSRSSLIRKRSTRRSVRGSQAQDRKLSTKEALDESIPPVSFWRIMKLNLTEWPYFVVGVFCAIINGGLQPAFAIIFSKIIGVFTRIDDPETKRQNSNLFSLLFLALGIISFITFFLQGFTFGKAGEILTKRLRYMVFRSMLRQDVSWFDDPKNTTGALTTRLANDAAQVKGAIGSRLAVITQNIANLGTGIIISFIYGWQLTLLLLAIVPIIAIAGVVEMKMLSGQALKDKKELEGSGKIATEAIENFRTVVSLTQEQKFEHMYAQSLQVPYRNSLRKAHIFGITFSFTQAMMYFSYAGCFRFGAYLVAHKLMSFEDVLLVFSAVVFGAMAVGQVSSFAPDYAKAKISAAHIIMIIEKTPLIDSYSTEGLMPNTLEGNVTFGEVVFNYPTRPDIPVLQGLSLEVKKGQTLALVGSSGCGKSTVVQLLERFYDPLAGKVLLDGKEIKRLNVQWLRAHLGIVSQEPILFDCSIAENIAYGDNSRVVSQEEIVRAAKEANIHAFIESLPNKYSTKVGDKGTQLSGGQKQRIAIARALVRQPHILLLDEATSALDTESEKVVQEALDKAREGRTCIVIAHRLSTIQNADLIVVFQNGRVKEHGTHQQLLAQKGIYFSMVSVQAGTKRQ", "conditions": "in vitro; cited from earlier work"}, "[1]": {"experiment": "Phase-1 drug-drug interaction study in healthy volunteers (Compound (III) 800 mg, SMV 150 mg, Odalasvir 150 mg loading then 50 mg, once daily): plasma PK", "format": "in vivo, human", "conditions": "both sexes, human, in vivo; for AUC0-24: read-out: AUC0-24; for Cmax: read-out: Cmax", "source_text": "The following daily doses were employed:"}, "OATP1B1": {"molecular_target": "T1, OATP1B1 (Homo sapiens, UniProt Q9Y6L6)", "T1 sequence (Q9Y6L6 1-691)": "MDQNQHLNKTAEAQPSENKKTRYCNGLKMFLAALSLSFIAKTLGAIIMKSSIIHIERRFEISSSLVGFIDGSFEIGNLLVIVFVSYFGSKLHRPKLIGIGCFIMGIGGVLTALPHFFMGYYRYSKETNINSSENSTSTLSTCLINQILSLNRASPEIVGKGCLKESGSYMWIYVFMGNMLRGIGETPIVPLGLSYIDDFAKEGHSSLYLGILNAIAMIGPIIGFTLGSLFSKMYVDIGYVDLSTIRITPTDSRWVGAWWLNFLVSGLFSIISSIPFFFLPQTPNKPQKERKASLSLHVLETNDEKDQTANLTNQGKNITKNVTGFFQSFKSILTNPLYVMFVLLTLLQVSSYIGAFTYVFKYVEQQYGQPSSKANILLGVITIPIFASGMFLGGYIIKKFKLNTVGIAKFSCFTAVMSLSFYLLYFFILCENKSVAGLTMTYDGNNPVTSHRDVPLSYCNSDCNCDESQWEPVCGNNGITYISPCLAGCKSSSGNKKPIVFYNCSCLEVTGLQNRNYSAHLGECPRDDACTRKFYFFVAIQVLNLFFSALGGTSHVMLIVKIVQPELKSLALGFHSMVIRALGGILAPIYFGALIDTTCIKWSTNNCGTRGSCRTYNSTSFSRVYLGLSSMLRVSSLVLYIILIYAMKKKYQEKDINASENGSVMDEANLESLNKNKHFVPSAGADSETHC", "conditions": "in vitro; cited from earlier work"}, "[2]": {"test_system": "CYP (cytochrome P450 enzymes)", "experiment": "CYP inhibition in vitro"}, "[3]": {"experiment": "PK of single agents vs fixed dose combinations (FDC), single oral dose in healthy volunteers", "format": "in vivo, human", "conditions": "for Cmax: read-out: Cmax (mean ± SD); for AUC(0-t): read-out: AUClast (mean ± SD); for AUC(0-inf): read-out: AUC∞ (mean ± SD)", "experimental": "SMV (100 mg), ODV (50 mg), and Compound (III) (800 mg) were administered as three different formulations or together as single doses in vivo to healthy volunteers. The arms of the study included: • Arm 1 (Reference Arm): Single oral doses of single agents, one SMV 100-mg capsule, one ODV 50-mg tablet as granule layered solid dispersion with copovidone and poloxamers, and two Compound (III) 400-mg tablets, administered together. • Arm 2: Single oral dose of fixed dose combination (FDC02): SMV 100 mg+ODV 50 mg as a spray dried solid dispersion with HPMC-AS L in a ratio ODV/HPMC-AS L 1/1 w/w+Compound (III) 800 mg • Arm 3: Single oral dose of fixed dose combination (FDC04): SMV 100 mg+ODV 50 mg as a spray dried solid dispersion with HPMC-AS L in a ratio ODV/HPMC-AS L 1/3 w/w+Compound (III) 800 mg • Arm 4: Single oral dose of fixed dose combination (FDC01): SMV 100 mg+ODV 50 mg as a spray dried solid dispersion with copovidone and poloxamers+Compound (III) 800 mg\nPK parameters, including Cmax, tmax, AUClast, and AUC∞ were measured for Compound (III), ODV, SMV, and metabolites Compound A-I and Compound A-3 for each Arm of the study. Arms that included fixed dose combinations (FDC) (Arm 2, Arm 3, and Arm 4) were then compared to a single oral dose (Arm 1, the reference Arm). Table 9, Table 10, Table 11, Table 12 and Table 13 display relevant PK parameters and FIG. 9, FIG. 10, FIG. 11, FIG. 12, and FIG. 13 depict the plasma concentration over time of SMV, ODV, Compound A-1, and Compound A-3 for each Arm of the study."}, "BCRP": {"molecular_target": "T2, BCRP (Homo sapiens, UniProt Q9UNQ0)", "T2 sequence (Q9UNQ0 1-655)": "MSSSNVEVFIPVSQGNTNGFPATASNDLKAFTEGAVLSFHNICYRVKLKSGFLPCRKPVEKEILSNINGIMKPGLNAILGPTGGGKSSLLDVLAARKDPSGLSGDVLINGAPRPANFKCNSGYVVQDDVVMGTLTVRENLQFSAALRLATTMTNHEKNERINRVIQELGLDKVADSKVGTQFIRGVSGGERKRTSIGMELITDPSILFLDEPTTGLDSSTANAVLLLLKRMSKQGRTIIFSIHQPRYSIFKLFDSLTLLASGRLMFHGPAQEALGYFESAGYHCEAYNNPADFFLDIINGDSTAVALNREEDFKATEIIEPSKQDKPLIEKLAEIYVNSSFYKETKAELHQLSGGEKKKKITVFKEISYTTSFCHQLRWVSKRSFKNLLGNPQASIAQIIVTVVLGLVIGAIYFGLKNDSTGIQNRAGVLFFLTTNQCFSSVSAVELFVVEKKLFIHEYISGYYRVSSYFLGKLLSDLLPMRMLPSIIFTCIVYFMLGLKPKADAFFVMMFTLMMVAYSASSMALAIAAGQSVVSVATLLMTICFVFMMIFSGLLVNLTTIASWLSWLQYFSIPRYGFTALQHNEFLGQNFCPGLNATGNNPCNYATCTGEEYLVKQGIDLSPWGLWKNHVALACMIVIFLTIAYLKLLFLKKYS", "conditions": "in vitro; cited from earlier work"}, "[4]": {"conditions": "Group 1, Day 3, Compound (III) alone"}, "[5]": {"conditions": "Group 1, Day 13 (Compound (III) + SMV)"}, "[6]": {"conditions": "Group 1, Day 23 (Compound (III) + SMV + ODV)"}, "[7]": {"conditions": "Group 2, Day 3 (Compound (III) alone)"}, "[8]": {"conditions": "Group 2, Day 13 (Compound (III) + SMV)"}, "[9]": {"conditions": "Group 2, Day 23 (Compound (III) + SMV + ODV)"}, "[10]": {"conditions": "Arm 2 (FDC02) vs reference (Arm 1)"}, "[11]": {"conditions": "Arm 3 (FDC04) vs reference (Arm 1)"}, "[12]": {"conditions": "Arm 4 (FDC01) vs reference (Arm 1)"}, "[13]": {"conditions": "human, in vivo, Arm 1 (reference): single agents together"}}, "note": "Like-named read-outs stand apart in the source and are kept apart here."}
{"smiles": "CC(C)OC(=O)[C@H](C)N[P@](=O)(OC[C@@]1(F)O[C@@H](n2ccc(=O)[nH]c2=O)[C@](C)(O)[C@@H]1O)Oc1ccccc1", "note": "[Compound (III), isopropyl ((S)-(((2S,3S,4R,5R)-5-(2,4-dioxo-3,4-dihydropyrimidin-1 (2H)-yl)-2-fluoro-3,4-dihydroxy-4-methyltetrahydrofuran-2-yl)methoxy)(phenoxy)phosphoryl)-L-alaninate]", "values": [{"measurement": "P-gp inhibition (in words)", "setting": "P-gp", "value": "no in vitro inhibition"}, {"measurement": "AUC0-24", "setting": "[1]; [4]", "value": 292, "unit": "ng·h/mL"}, {"measurement": "Cmax", "setting": "[1]; [4]", "value": 162, "unit": "ng/mL"}, {"measurement": "AUC0-24", "setting": "[1]; [5]", "value": 1000, "unit": "ng·h/mL"}, {"measurement": "Cmax", "setting": "[1]; [5]", "value": 376, "unit": "ng/mL"}, {"measurement": "AUC0-24", "setting": "[1]; [6]", "value": 2090, "unit": "ng·h/mL"}, {"measurement": "Cmax", "setting": "[1]; [6]", "value": 747, "unit": "ng/mL"}, {"measurement": "AUC0-24", "setting": "[1]; [7]", "value": 325, "unit": "ng·h/mL"}, {"measurement": "Cmax", "setting": "[1]; [7]", "value": 151, "unit": "ng/mL"}, {"measurement": "AUC0-24", "setting": "[1]; [8]", "value": 1300, "unit": "ng·h/mL"}, {"measurement": "Cmax", "setting": "[1]; [8]", "value": 516, "unit": "ng/mL"}, {"measurement": "AUC0-24", "setting": "[1]; [9]", "value": 2910, "unit": "ng·h/mL"}, {"measurement": "Cmax", "setting": "[1]; [9]", "value": 950, "unit": "ng/mL"}, {"measurement": "OATP1B1 inhibition (in words)", "setting": "OATP1B1", "value": "no in vitro inhibition"}, {"measurement": "IC50", "setting": "[2]", "value": "> 26", "unit": "µM"}, {"measurement": "CYP inhibition potential (in words)", "setting": "[2]; on any CYP", "value": "limited CYP inhibition potential"}, {"measurement": "t1/2term (mean ± SD)", "setting": "[3]; Arm 1 (reference): single agents together", "value": "36 ± 6", "unit": "min"}, {"measurement": "Least Square Means Ratio, AUClast", "setting": "[3]; [10]", "value": 110.22, "unit": "%"}, {"measurement": "Least Square Means Ratio, AUC∞", "setting": "[3]; [10]", "value": 111.86, "unit": "%"}, {"measurement": "Least Square Means Ratio, Cmax", "setting": "[3]; [10]", "value": 109.68, "unit": "%"}, {"measurement": "t1/2term (mean ± SD)", "setting": "[3]; Arm 2: FDC02", "value": "42 ± 12", "unit": "min"}, {"measurement": "tmax (median [range])", "setting": "[3]; Arm 2: FDC02", "value": "2.00 (0.50-4.00) h"}, {"measurement": "Least Square Means Ratio, AUClast", "setting": "[3]; [11]", "value": 127.06, "unit": "%"}, {"measurement": "Least Square Means Ratio, AUC∞", "setting": "[3]; [11]", "value": 138.97, "unit": "%"}, {"measurement": "Least Square Means Ratio, Cmax", "setting": "[3]; [11]", "value": 122.40, "unit": "%"}, {"measurement": "t1/2term (mean ± SD)", "setting": "[3]; Arm 3: FDC04", "value": "42 ± 6", "unit": "min"}, {"measurement": "tmax (median [range])", "setting": "[3]; Arm 3: FDC04", "value": "2.00 (1.00-4.00) h"}, {"measurement": "Least Square Means Ratio, AUClast", "setting": "[3]; [12]", "value": 151.72, "unit": "%"}, {"measurement": "Least Square Means Ratio, AUC∞", "setting": "[3]; [12]", "value": 144.80, "unit": "%"}, {"measurement": "Least Square Means Ratio, Cmax", "setting": "[3]; [12]", "value": 145.56, "unit": "%"}, {"measurement": "t1/2term (mean ± SD)", "setting": "[3]; Arm 4: FDC01", "value": "36 ± 6", "unit": "min"}, {"measurement": "tmax (median [range])", "setting": "[3]; Arm 4: FDC01", "value": "2.00 (1.00-4.00) h"}, {"measurement": "Cmax", "setting": "[3]; human, in vivo, Arm 1 (reference): single agents together, SMV 100-mg capsule, ODV 50-mg tablet, two Compound (III) 400-mg tablets", "value": "484 ± 177", "unit": "ng/mL"}, {"measurement": "AUC(0-t)", "setting": "[3]; [13]", "value": "1160 ± 497", "unit": "ng·h/mL"}, {"measurement": "AUC(0-inf)", "setting": "[3]; [13]", "value": "1180 ± 524", "unit": "ng·h/mL"}, {"measurement": "Tmax", "setting": "[3]; human, in vivo, Arm 1 (reference): single agents together, read-out: tmax (median [range])", "value": 120, "unit": "min"}, {"measurement": "Cmax", "setting": "[3]; human, in vivo, Arm 2: FDC02, SMV 100 mg + ODV 50 mg (ODV/HPMC-AS L 1/1 w/w) + Compound (III) 800 mg", "value": "544 ± 225", "unit": "ng/mL"}, {"measurement": "AUC(0-t)", "setting": "[3]; human, in vivo, Arm 2: FDC02", "value": "1260 ± 411", "unit": "ng·h/mL"}, {"measurement": "AUC(0-inf)", "setting": "[3]; human, in vivo, Arm 2: FDC02", "value": "1300 ± 420", "unit": "ng·h/mL"}, {"measurement": "Cmax", "setting": "[3]; human, in vivo, Arm 3: FDC04, SMV 100 mg + ODV 50 mg (ODV/HPMC-AS L 1/3 w/w) + Compound (III) 800 mg", "value": "617 ± 295", "unit": "ng/mL"}, {"measurement": "AUC(0-t)", "setting": "[3]; human, in vivo, Arm 3: FDC04", "value": "1440 ± 450", "unit": "ng·h/mL"}, {"measurement": "AUC(0-inf)", "setting": "[3]; human, in vivo, Arm 3: FDC04", "value": "1580 ± 434", "unit": "ng·h/mL"}, {"measurement": "Cmax", "setting": "[3]; human, in vivo, Arm 4: FDC01, SMV 100 mg + ODV 50 mg (copovidone and poloxamers) + Compound (III) 800 mg", "value": "745 ± 381", "unit": "ng/mL"}, {"measurement": "AUC(0-t)", "setting": "[3]; human, in vivo, Arm 4: FDC01", "value": "1830 ± 866", "unit": "ng·h/mL"}, {"measurement": "AUC(0-inf)", "setting": "[3]; human, in vivo, Arm 4: FDC01", "value": "1790 ± 889", "unit": "ng·h/mL"}, {"measurement": "BCRP inhibition (in words)", "setting": "BCRP", "value": "no in vitro inhibition"}]}
